Data on 8 compounds can be found in patent publication US10039741B2, “Use of delta tocopherol for the treatment of lysosomal storage disorders” (The United States of America, as represented by the …, priority 2010, dated 2018).

In series [1] the test system is NPC mouse model. The conditions noted are these: cited from earlier work.
Series [2] concerns NPC cat model. The conditions noted are these: cited from earlier work.
Series [3] deals with NPC patient-derived skin fibroblasts. In words: Amplex red cholesterol assay (free cholesterol). The series is classed as cell-based, human. The settings on record: NPCD fibroblasts. The source says: Free cholesterol accumulation in cells is a hallmark of NPC disease. The Amplex red cholesterol assay was used to screen an approved drug library in the NPC patient-derived skin fibroblasts that have free cholesterol accumulation in late endosome and lysosome. […] We then show δ-tocopherol in the filipin cholesterol staining assay, a method used clinically for NPCD diagnosis. […] Lysosome size is usually enlarged in the NPCD cells using a lysotracker staining assay.
The free cholesterol level in these cells was then measured by a cholesterol oxidase coupled HRP/amplex red detection method with a commercial available kit (Invitrogen). The cells were seeded to black, tissue culture-treated 1536-well plates (Greiner Bio-One, Monroe, N.C.) at 800 cells/well in 5 μl medium by a Multidrop Combi dispenser (Thermo Scientific, Waltham, Mass.) and cultured for 24 hours. The assay plates were added with 23 nl/well of compound DMSO solution using a pintool station (Kalypsys, San Diego, Calif.) and cultured for 3 days. The 1536-well assay plate was washed by a plate-inverted centrifugation method that removing medium by centrifuging plates upside down against a stack of paper towel at 1000 rpm for 1 min followed by addition of 7 μl/well PBS buffer, repeating for two times. The PBS buffer was added with a 45 degree angled dispenser (Kalypsys) or a Multi-Drop Combi dispenser set at medium speed to reduce disturbance to the cells. After the cell wash, 2.5 μl/well of detection mixture from the kit was added followed by 1 hour incubation at 37° C. With the addition of the detection mixture, the cells were lysed by the detergent containing buffer and free cholesterols in cell lysate were oxidized by cholesterol oxidase to produce H2O2 which reacting with amplex red dye in the presence of horseradish peroxidase to yield red fluorescence signal. A ViewLux plate reader (PerkinElmer, Boston, Mass.) was used to measure the fluorescent signal in assay plates with the excitation of 573 nm and emissions of 610 nm.

In series [4] the test system is NPCD fibroblasts. In words: Lysotracker staining assay (lysosome size). The series is classed as cell-based, human. The settings on record: NPCD fibroblasts. Here is the method: Lysotracker is fluorescent dye that stains acidic compartments in live cells and is well-retained after aldehyde fixation. We have optimized a lysotracker staining assay to visualize the enlarged lysosome size in the NPC skin fibroblasts by applying appropriate concentration of lysotracker dye in comparison with these normal fibroblast cells. Cells were seeded at 8000 cells/well in 100 μl medium in a black/clear bottom, tissue culture treated plate and cultured overnight or in a dedicated time. The cells were live-stained with 100 u/well 50 nM Lysotracker Red-99 dye (Invitrogen) dissolved medium at 37° C. for 1 hr followed by two-times plate wash with PBS buffer using the plate-inverted centrifugation method. The plate was then added with 100 μl/well 3.2% formaldehyde and 1 μg/ml Hoechst 33342 (Invitrogen) in PBS and incubated at room temperature for 30 minutes. After three times of plate wash with PBS buffer, samples were stored at 4° C. until imaging. Samples were photographed using an IN Cell Analyzer 1000 (GE Healthcare) with a 20× objective equipped with CCD camera. DAPI filter and TRITC filter were used to visualize Hoechst and Lysotracker red, respectively. The images were processed by Adobe Photoshop.

The test system of series [5] is NPC fibroblasts. In words: Lipid measurement by mass spectrometry (GC/MS). It counts as cell-based, human. The conditions noted are these: 80 μM α-tocopherol or 40 uM δ-tocopherol for 5 days. Here is the method: (§1) Effects of δ-tocopherol and α-tocopherols on (FIG. 4A) free cholesterol, (FIG. 4B) cholesterol ester and (FIG. 4C) sphingomyelin in NPC cells. NPC or WT cells were treated with DMSO, 80 μM α-tocopherol or 40 uM δ-tocopherol for 5 days. Cell pellets were collected and extracted for lipids. FC EC and sphingomyelin levels were measured by GC/MS. (FIG. 4D) Effects of δ-tocopherols and α-tocopherols on cholesterol efflux.
(§2) Cell pellets were collected from 100-mm dishes and washed once with 10 ml PBS. Proteins were assayed using the BCA kit (Sigma-Aldrich) and lipids were extracted by modified Bligh and Dyer procedure (29) from the cells. Internal standards were added based on protein concentration that included N12:0 sphingomyelin, D7-cholesterol, 17:0 cholesterol ester (Avanti Polar Lipids, Inc). A portion of the lipid extract was used for detection of sphingomyelins using direct infusion mass spectrometric assay with lithium hydroxide for facilitating ionization and the rest was used to convert cholesterol and its ester into acetate by derivatization. The derivatization was performed by treating the dried crude lipid extract with solutions of 1 M acetic acid with 1 M DMAP in chloroform and 1 M EDC in chloroform at 50° C. for 2 hours. The derivatized product was extracted with hexane and analyzed by direct infusion mass spectrometric assay with 5% ammonium hydroxide for facilitating ionization.
(§3) A triple-quadrupole mass spectrometer equipped with an electrospray was used for analysis of lipids in positive mode. Sphingomyelins, cholesterol and cholesterol esters were detected by neutral loss scan of 213 (collision energy: 50 V), neutral loss scan of 77 (collision energy: 14 V) and precursor ion scan of m/z 369 (collision energy: 14 V) respectively. Data processing of mass spectrometric analyses including ion peak selection, data transferring, peak intensity comparison and quantitation was conducted using self-programmed Microsoft Excel macros (30).

Series [6] has as its system wild type cells. In words: Lipid measurement by mass spectrometry (GC/MS). It counts as cell-based, human. The conditions noted are these: wild type cells; 80 μM α-tocopherol or 40 uM δ-tocopherol for 5 days. The protocol:
as §1, §2, §3

In series [7] the test system is Wolman disease cells. The experiment in a line: Amplex-red cholesterol assay (total cholesterol), combination therapy. It counts as cell-based, human. The source says:
(1) Amplex-red cholesterol assay. This biochemical assay (Invitrogen) uses cholesterol oxidase and a HRP-Amplex-re reporting system to measure the free cholesterol level in cells. With the addition of acid lipase to this assay, that hydrolyzes cholesterol ester to free cholesterol, the level of total cholesterol in cells including the cholesterol ester can be measured. This assay was used for detecting the total cholesterol level of in fibroblasts from patients with Wolman disease.

The conditions of series [8]: human plasma, physiological level; cited from earlier work.

Take `OC[C@H]1O[C@@H]2O[C@H]3[C@H](O)[C@@H](O)[C@@H](O[C@H]4[C@H](O)[C@@H](O)[C@@H](O[C@H]5[C@H](O)[C@@H](O)[C@@H](O[C@H]6[C@H](O)[C@@H](O)[C@@H](O[C@H]7[C@H](O)[C@@H](O)[C@@H](O[C@H]8[C@H](O)[C@@H](O)[C@@H](O[C@H]1[C@H](O)[C@H]2O)O[C@@H]8CO)O[C@@H]7CO)O[C@@H]6CO)O[C@@H]5CO)O[C@@H]4CO)O[C@@H]3CO` [Beta-cyclodextrin]: the cholesterol accumulation entry in series [1] and in series [2] was “reduce cholesterol accumulation” throughout. The life span result in series [1] and in series [2] was “increase in life span” each time.

For the compound `O=C1O[C@H]([C@@H](O)CO)C(O)=C1O` [vitamin C, reference compound], in series [3], the “cholesterol amount (cholesterol reduction)” value is “not active”. The enlarged lysosome size result in series [4] was “not active”.

On to `Cc1c(C)c2c(c(C)c1O)CC[C@@](C)(CCC[C@H](C)CCC[C@H](C)CCCC(C)C)O2` [α-tocopherol, reference compound], for which, in series [5] (NPCD cells), the “amount of cholesterol ester” value is “significantly reduced” and the sphingomyelin amount entry is “not significantly changed”. Further, in series [5] (NPCD fibroblasts), the free cholesterol level entry is reported as “not statistically different”. In series [6], the “amount of cholesterol ester” value is reported as “significantly reduced” and the sphingomyelin amount result is reported as “not significantly changed”. Also, the “cholesterol level, sole therapy” value in series [7] (40 μM delta-tocopherol or 80 μM alpha-tocopherol alone) is listed as “cholesterol reduction effect”. The “cholesterol level, combination” value in series [7] (alpha-tocopherol 20 uM combined with 10 μM MBCD) is on record as “cholesterol reduction effect”. For the same compound, the plasma concentration in series [8] was approximately 26 µM.

With `CC(=O)N[C@@H](CS)C(=O)O` [NAc, N-acetyl cysteine, reference compound], the “cholesterol amount (cholesterol reduction)” value in series [3] was “did not have any effect”. Moreover, in series [4], the enlarged lysosome size entry was “did not have any effect”.

vitamin K [reference compound]: the “cholesterol amount (cholesterol reduction)” value in series [3] is on record as “not active”. Further, in series [4], the enlarged lysosome size entry is “not active”.

As usually defined, the EC50 is the concentration giving half of the maximal effect. On to `Cc1c(O)cc2c(c1C)O[C@](C)(CCC[C@H](C)CCC[C@H](C)CCCC(C)C)CC2` [γ-tocopherol, reference compound], for which, in series [3] (Homo sapiens, Skin fibroblast, read-out: EC50, reduction of cholesterol accumulation), the EC50 was 60 to 80 µM.

As for vitamin D [reference compound], the “cholesterol amount (cholesterol reduction)” value in series [3] is listed as “not active”. The enlarged lysosome size result in series [4] was “not active”.

Regarding “methyl-beta-cyclodextrin [MBCD, reference compound]”, the cholesterol level entry in series [7] (MBCD at 0.3 mM alone) is recorded as “time dependent reduction”.
